Laboratory results taken from PubChem BioAssay (NCI).
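How tested: cells in 96-well plates exposed to compound for 48 hours at five concentrations. GI50: concentration for 50% inhibition of growth. At the TGI there is no net growth.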

What was measured:
Assay in all cases: NCI anticancer screen, dose series, 48 h
A549 NSCLC = system: A549 NSCLC
BT-549 breast = system: BT-549 breast
CCRF-CEM leukemia = system: CCRF-CEM leukemia
HL-60(TB) leukemia = system: HL-60(TB) leukemia
IGROV1 ovarian = system: IGROV1 ovarian
NCI/ADR-RES ovarian = system: NCI/ADR-RES ovarian
OVCAR-3 ovarian = system: OVCAR-3 ovarian
OVCAR-4 ovarian = system: OVCAR-4 ovarian
RPMI-8226 leukemia = system: RPMI-8226 leukemia
UO-31 renal = system: UO-31 renal

NC1=Nc2cc(OCCCCN3Cc4ccccc4C3)c(OCC3CC3)cc2C12CCCC2
GI50 (A549 NSCLC): 1990 nM
TGI (A549 NSCLC): 4840 nM
GI50 (BT-549 breast): 1570 nM
TGI (BT-549 breast): 3330 nM
GI50 (CCRF-CEM leukemia): 2480 nM
TGI (CCRF-CEM leukemia): 9500 nM
GI50 (HL-60(TB) leukemia): 1730 nM
TGI (HL-60(TB) leukemia): 3550 nM
GI50 (IGROV1 ovarian): 1420 nM
TGI (IGROV1 ovarian): 2980 nM
GI50 (NCI/ADR-RES ovarian): 1730 nM
TGI (NCI/ADR-RES ovarian): 3410 nM
GI50 (OVCAR-3 ovarian): 1490 nM
TGI (OVCAR-3 ovarian): 3160 nM
GI50 (OVCAR-4 ovarian): 3110 nM
TGI (OVCAR-4 ovarian): 14700 nM
GI50 (RPMI-8226 leukemia): 1530 nM
TGI (RPMI-8226 leukemia): 4020 nM
GI50 (UO-31 renal): 1460 nM
TGI (UO-31 renal): 2880 nM

CC1(C)CC[C@]2(C(=O)O)CC[C@]3(C)C(=CC[C@@H]4[C@@]5(C)C/C(=C/c6cccnc6)[C@H](O)C(C)(C)[C@@H]5CC[C@]43C)[C@@H]2C1
GI50 (A549 NSCLC): 3650 nM
TGI (A549 NSCLC): > 100000 nM
GI50 (BT-549 breast): 12400 nM
TGI (BT-549 breast): > 100000 nM
GI50 (CCRF-CEM leukemia): 2880 nM
TGI (CCRF-CEM leukemia): 18500 nM
GI50 (HL-60(TB) leukemia): 2120 nM
TGI (HL-60(TB) leukemia): 5940 nM
GI50 (IGROV1 ovarian): 5130 nM
TGI (IGROV1 ovarian): > 100000 nM
GI50 (NCI/ADR-RES ovarian): 9820 nM
TGI (NCI/ADR-RES ovarian): > 100000 nM
GI50 (OVCAR-3 ovarian): 7080 nM
TGI (OVCAR-3 ovarian): 25600 nM
GI50 (OVCAR-4 ovarian): 40000 nM
TGI (OVCAR-4 ovarian): > 100000 nM
GI50 (RPMI-8226 leukemia): 3020 nM
TGI (RPMI-8226 leukemia): 18800 nM
GI50 (UO-31 renal): 4640 nM
TGI (UO-31 renal): 19200 nM

Cc1n[nH]c(C)c1-c1c(C)n[nH]c1C
GI50 (A549 NSCLC): 1680 nM
TGI (A549 NSCLC): 4350 nM
GI50 (BT-549 breast): 1970 nM
TGI (BT-549 breast): 4260 nM
GI50 (CCRF-CEM leukemia): 1450 nM
TGI (CCRF-CEM leukemia): > 100000 nM
GI50 (HL-60(TB) leukemia): 2260 nM
TGI (HL-60(TB) leukemia): 6950 nM
GI50 (IGROV1 ovarian): 1800 nM
TGI (IGROV1 ovarian): 4300 nM
GI50 (NCI/ADR-RES ovarian): 2190 nM
TGI (NCI/ADR-RES ovarian): 6160 nM
GI50 (OVCAR-3 ovarian): 1600 nM
TGI (OVCAR-3 ovarian): 3050 nM
GI50 (OVCAR-4 ovarian): 2280 nM
TGI (OVCAR-4 ovarian): 6380 nM
GI50 (RPMI-8226 leukemia): 1870 nM
TGI (RPMI-8226 leukemia): 7010 nM
GI50 (UO-31 renal): 1310 nM
TGI (UO-31 renal): 2700 nM

COC(=O)[C@@H](C)C[C@H](Cc1ccccc1)NC(=O)c1nc([C@@H](C[C@H](C(C)C)N(C)C(=O)[C@@H](NC(=O)[C@H]2CC(=O)CCN2C)C(C)C)OC(C)=O)sc1C(C)C
GI50 (A549 NSCLC): 775 nM
TGI (A549 NSCLC): > 16700 nM
GI50 (BT-549 breast): 97.1 nM
TGI (BT-549 breast): 2700 nM
GI50 (CCRF-CEM leukemia): 370 nM
TGI (CCRF-CEM leukemia): > 16700 nM
GI50 (HL-60(TB) leukemia): 52.9 nM
TGI (HL-60(TB) leukemia): 227 nM
GI50 (IGROV1 ovarian): 111 nM
TGI (IGROV1 ovarian): > 13500 nM
GI50 (NCI/ADR-RES ovarian): 4110 nM
TGI (NCI/ADR-RES ovarian): > 16700 nM
GI50 (OVCAR-3 ovarian): 54.2 nM
TGI (OVCAR-3 ovarian): 620 nM
GI50 (OVCAR-4 ovarian): 1340 nM
TGI (OVCAR-4 ovarian): > 16700 nM
GI50 (RPMI-8226 leukemia): 56 nM
TGI (RPMI-8226 leukemia): 4380 nM
GI50 (UO-31 renal): 951 nM
TGI (UO-31 renal): > 10500 nM

N#CSc1c[nH]c2cccc(/C=C/C(=O)/C=C(O)/C=C/c3cccc4[nH]cc(SC#N)c34)c12
GI50 (A549 NSCLC): 353 nM
TGI (A549 NSCLC): 2780 nM
GI50 (BT-549 breast): 500 nM
TGI (BT-549 breast): 1630 nM
GI50 (CCRF-CEM leukemia): 159 nM
TGI (CCRF-CEM leukemia): 6470 nM
GI50 (HL-60(TB) leukemia): 437 nM
TGI (HL-60(TB) leukemia): 1750 nM
GI50 (IGROV1 ovarian): 460 nM
TGI (IGROV1 ovarian): 1580 nM
GI50 (NCI/ADR-RES ovarian): 2720 nM
TGI (NCI/ADR-RES ovarian): > 33300 nM
GI50 (OVCAR-3 ovarian): 225 nM
TGI (OVCAR-3 ovarian): 1090 nM
GI50 (OVCAR-4 ovarian): 216 nM
TGI (OVCAR-4 ovarian): 1720 nM
GI50 (RPMI-8226 leukemia): 128 nM
TGI (RPMI-8226 leukemia): 900 nM
GI50 (UO-31 renal): 197 nM
TGI (UO-31 renal): 652 nM

N/C(=N\O)c1cn(C2OC(CO)C(O)C2O)c2ncnc(N)c12 (centres undefined)
GI50 (A549 NSCLC): 126 nM
TGI (A549 NSCLC): 20100 nM
GI50 (BT-549 breast): 311 nM
TGI (BT-549 breast): 17700 nM
GI50 (CCRF-CEM leukemia): 303 nM
TGI (CCRF-CEM leukemia): > 38600 nM
GI50 (HL-60(TB) leukemia): 117 nM
TGI (HL-60(TB) leukemia): 858 nM
GI50 (IGROV1 ovarian): 263 nM
TGI (IGROV1 ovarian): 20700 nM
GI50 (NCI/ADR-RES ovarian): 262 nM
GI50 (OVCAR-3 ovarian): 408 nM
TGI (OVCAR-3 ovarian): 9760 nM
GI50 (OVCAR-4 ovarian): 177 nM
TGI (OVCAR-4 ovarian): 4050 nM
GI50 (RPMI-8226 leukemia): 162 nM
TGI (RPMI-8226 leukemia): 625 nM
GI50 (UO-31 renal): 229 nM
TGI (UO-31 renal): 13400 nM
